{"source": "paper PMC4257678", "about": "“Influence of Sampling on the Determination of Warfarin and Warfarin Alcohols in Oral Fluid” (PLoS ONE, 2014)", "key": {"[1]": {"conditions": "PBS 25 mM pH 7 / 1-octanol, 25°C, 24 hours, n = 3", "protocol": "The LogKow value at pH = 7 of both diastereoisomers of WAROHs was determined using the standardized OECD guidelines [25]. Briefly, a standard working solution of WAROHs (1000 ng/mL, C1) was prepared in triplicate in the PBS buffer (25 mM at pH = 7) and then mechanically stirred with an equal volume (4 mL) of 1-octanol at 25°C for 24 hours. The phase separation was obtained at room temperature by centrifuging at 5000 rpm for 5 min. […] The concentration in the organic phase was calculated by subtracting C2 and C3 from C1. LogKow at pH = 7 is expressed as the ratio of the compound concentration in the organic phase to that in the aqueous phase.\nThe value of LogKow at pH = 7 of both diastereoisomers of WAROHs was determined by the standardized shake-flask method. Octanol was added to a working solution of the WAROHs prepared in PBS at pH 7.0."}, "[2]": {"experiment": "not given", "remark": "listed apart in the source"}, "[3]": {"experiment": "dissociation constant by HPLC-FLD at different mobile phase pH and methanol content", "conditions": "for best aqueous pKa: psKa vs Rwt% extrapolated at zero organic content", "experimental": "In brief, a standard working solution of WAROHs (1060 ng/mL) was prepared in a PBS buffer (25 mM at different pH value) and then analyzed in triplicate by HPLC-FLD. This approach is based on the different chromatographic behaviour of dissociated and non-dissociated forms of each compound at different pH values of the mobile phase. The pH was lowered in steps of 1 unit and ranged from 7.0 to 3.0. To reach the required pH, different aliquots of H3PO4 (85 wt% in H2O) were added to the mobile phase. The resulting pH was further checked by a pH-meter.\nThe capacity factor to pH variation ratio (Δk’/ΔpH) of both diastereoisomers was determined with different contents of organic modifiers (Rwt%: 40, 50 and 60) in the methanol-PBS mobile phase. The cosolvent dissociation constant (psKa) value was calculated by equation 1 [27]: [drawing 1] (1) where k’ HA and k’ A are the capacity factors of non-dissociate and dissociate forms, respectively. The pH and k’ values were defined as the corresponding point with a […] slope in the Δk’/ΔpH plot.\nThe dissociation constant (pKa) of both diastereoisomers of WAROHs was determined at different pH values of the mobile phase by the HPLC-FLD method by varying the organic solvent/water ratio."}, "[4]": {"design": "method as in PMID 16867718", "conditions": "T = 25°C; cited from earlier work"}, "[5]": {"design": "method as in PMID 16867718", "conditions": "at 25°C; cited from earlier work"}, "[6]": {"conditions": "14 patients undergoing WAR therapy"}}, "note": "Where two headings read alike, the source gives them in different places."}
{"smiles": "CC(O)CC(c1ccccc1)c1c(O)c2ccccc2oc1=O", "note": "(centres unmarked) [RR/SS-warfarin alcohols]", "values": [{"measurement": "LogKow at pH = 7", "setting": "[1]", "value": "0.83 ± 0.01"}, {"measurement": "total plasma concentration (mean ± s.d.)", "setting": "[6]", "value": "30 ± 20", "unit": "ng/mL"}, {"measurement": "total plasma concentration (range)", "setting": "[6]", "value": "13 to 82", "unit": "ng/mL"}, {"measurement": "concentration in pooled patients oral fluid sample", "setting": "[2]; Figure 2E, extracted PPOFS", "value": 0.6, "unit": "ng/mL"}, {"measurement": "best aqueous pKa", "setting": "[3]", "value": "6.55 ± 0.04"}]}
{"smiles": "CC(O)CC(c1ccccc1)c1c(O)c2ccccc2oc1=O", "note": "(centres unmarked) [RS/SR-warfarin alcohols]", "values": [{"measurement": "LogKow at pH = 7", "setting": "[1]", "value": "0.93 ± 0.01"}, {"measurement": "total plasma concentration (mean ± s.d.)", "setting": "[6]", "value": "600 ± 300", "unit": "ng/mL"}, {"measurement": "total plasma concentration (range)", "setting": "[6]", "value": "100 to 1100", "unit": "ng/mL"}, {"measurement": "unbound plasma concentration (mean ± s.d.)", "setting": "[6]", "value": "5 ± 3", "unit": "ng/mL"}, {"measurement": "unbound plasma concentration (range)", "setting": "[6]", "value": "1 to 10", "unit": "ng/mL"}, {"measurement": "concentration in non-stimulated OF samples (mean ± s.d.)", "setting": "[2]; [6]", "value": "3 ± 2", "unit": "ng/mL"}, {"measurement": "concentration in non-stimulated OF samples (range)", "setting": "[2]; [6]", "value": "1 to 5", "unit": "ng/mL"}, {"measurement": "concentration in stimulated OF samples (mean ± s.d.)", "setting": "[2]; [6]", "value": "3 ± 2", "unit": "ng/mL"}, {"measurement": "concentration in stimulated OF samples (range)", "setting": "[2]; [6]", "value": "1 to 6", "unit": "ng/mL"}, {"measurement": "concentration in pooled patients oral fluid sample", "setting": "[2]; Figure 2E, extracted PPOFS", "value": 10.1, "unit": "ng/mL"}, {"measurement": "best aqueous pKa", "setting": "[3]", "value": "5.73 ± 0.03"}]}
{"smiles": "CC(=O)CC(c1ccccc1)c1c(O)c2ccccc2oc1=O", "note": "(stereo not drawn) [WAR, 3-(α-acetonylbenzyl)-4-hydroxycoumarin, reference compound]", "values": [{"measurement": "LogKow at pH = 7", "setting": "[1]", "value": "0.94 ± 0.05"}, {"measurement": "total plasma concentration (mean ± s.d.)", "setting": "human, in vivo", "value": "1300 ± 500", "unit": "ng/mL"}, {"measurement": "total plasma concentration (range)", "setting": "human, in vivo", "value": "400 to 2000", "unit": "ng/mL"}, {"measurement": "unbound plasma concentration (mean ± s.d.)", "setting": "human, in vivo", "value": "9 ± 4", "unit": "ng/mL"}, {"measurement": "unbound plasma concentration (range)", "setting": "human, in vivo", "value": "3 to 17", "unit": "ng/mL"}, {"measurement": "concentration in non-stimulated OF samples (mean ± s.d.)", "setting": "[2]; human, in vivo", "value": "3 ± 2", "unit": "ng/mL"}, {"measurement": "concentration in non-stimulated OF samples (range)", "setting": "[2]; human, in vivo", "value": "1 to 5", "unit": "ng/mL"}, {"measurement": "concentration in stimulated OF samples (mean ± s.d.)", "setting": "[2]; human, in vivo", "value": "6 ± 3", "unit": "ng/mL"}, {"measurement": "concentration in stimulated OF samples (range)", "setting": "[2]; human, in vivo", "value": "1 to 14", "unit": "ng/mL"}, {"measurement": "concentration in pooled patients oral fluid sample", "setting": "[2]; human, in vivo, po", "value": 9.8, "unit": "ng/mL"}, {"measurement": "pKa", "setting": "[4]", "value": "5.15 ± 0.04"}, {"measurement": "LogP", "setting": "[5]", "value": "2.82 ± 0.06"}, {"measurement": "pKa", "setting": "[3]", "value": "5.42 ± 0.03"}]}
